Reference: patent US11786528B2, “Pyrazolopyrimidine compounds as adenosine receptor antagonists” (EXSCIENTIA LTD., priority 2018, dated 2023)

Tests used:
[1] = biological target: human adenosine receptor sub-type A2a (wild type) (Homo sapiens (Human), UniProt P29274); assay: Affinity for human adenosine A2a receptor by surface plasmon resonance (SPR); format: binding
Experimental: (§1) Affinity for the human adenosine receptor sub-types (A2a, A2b, A1 and A3) was determined by surface plasmon resonance (SPR) using published methodologies (see below for further details).
(§2) Affinity for the human adenosine receptor sub-types (A2a, A2b, A1 and A3) was determined by SPR as described in Aristotelous, T., et al, Methods in Enzymology (2015), Volume 556, Chapter 23, pages 499-525 and Congreve, M., et al, J Med Chem (2012), Vol. 55, pages 1898-1903. The method used was analogous to the method used in Congreve, M., et al (see supplementary page S10) for the A2a receptor, but the wild type receptor was used rather than the proprietary StaR form.

[2] = biological target: human A2a receptors (HEK 293 transfected) (Homo sapiens (Human), UniProt P29274); assay: Inhibition of cAMP release in HEK-A2aR cells (HTRF, LANCE Ultra cAMP); format: cell-based; settings: 3 nM NECA, 10 min
Experimental: Functional activity was measured by inhibition of cAMP release in HEK cells (see below for further details).
To screen A2a receptor inhibitors by HTRF technology, about 500 HEK-A2aR cells (HEK 293 transfected with human A2a receptors) were treated with inhibitors in presence of stimulation buffer (1×HBSS, 5 mM HEPES, 0.1% BSA stabilizer, pH 7.4) supplemented with 30 μM phosphodiesterase inhibitor Rolipram (to prevent cAMP degradation). This stimulation was immediately followed by treatment with 3 nM standard A2aR agonist (NECA) for 10 min under gentle shaking at room temperature. After that, inhibition of cAMP release was determined directly using LANCE Ultra cAMP assay (Perkin Elmer TRF0263).
All analysis was performed using GraphPad Prism 7.0 (GraphPad Software, San Diego, USA). Results are given, as EC50 (M).

[3] = biological target: human adenosine receptor sub-type A2b (Homo sapiens (Human), UniProt P29275); assay: Affinity for human adenosine A2b receptor by SPR; format: binding; settings: for IC50: SPR, human A2b receptor; for Relative selectivity for A2a v. A2b: from SPR IC50 values, rounded to 2 significant figures
Experimental: as §1, §2

[4] = biological target: human adenosine receptor sub-type A1 (Homo sapiens (Human), UniProt P30542); assay: Affinity for human adenosine A1 receptor by SPR; format: binding; settings: for IC50: SPR, human A1 receptor; for Relative selectivity for A2a v. A1: from SPR IC50 values, rounded to 2 significant figures
Experimental: as §1, §2

[5] = biological target: human adenosine receptor sub-type A3 (Homo sapiens (Human), UniProt P0DMS8); assay: Affinity for human adenosine A3 receptor by SPR; format: binding; settings: for IC50: SPR, human A3 receptor; for Relative selectivity for A2a v. A3: from SPR IC50 values, rounded to 2 significant figures
Experimental: as §1, §2

Sequence of human adenosine receptor sub-type A1 (P30542 whole entry): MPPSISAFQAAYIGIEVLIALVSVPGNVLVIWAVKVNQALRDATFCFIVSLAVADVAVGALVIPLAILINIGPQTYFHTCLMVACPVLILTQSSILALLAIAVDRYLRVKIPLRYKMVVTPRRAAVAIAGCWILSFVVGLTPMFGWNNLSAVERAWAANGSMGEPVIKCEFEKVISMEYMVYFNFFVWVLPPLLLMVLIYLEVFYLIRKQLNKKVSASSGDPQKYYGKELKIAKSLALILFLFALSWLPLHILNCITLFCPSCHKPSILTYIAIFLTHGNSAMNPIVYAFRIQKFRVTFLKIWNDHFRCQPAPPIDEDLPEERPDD
Sequence of human adenosine receptor sub-type A2b (P29275 whole entry): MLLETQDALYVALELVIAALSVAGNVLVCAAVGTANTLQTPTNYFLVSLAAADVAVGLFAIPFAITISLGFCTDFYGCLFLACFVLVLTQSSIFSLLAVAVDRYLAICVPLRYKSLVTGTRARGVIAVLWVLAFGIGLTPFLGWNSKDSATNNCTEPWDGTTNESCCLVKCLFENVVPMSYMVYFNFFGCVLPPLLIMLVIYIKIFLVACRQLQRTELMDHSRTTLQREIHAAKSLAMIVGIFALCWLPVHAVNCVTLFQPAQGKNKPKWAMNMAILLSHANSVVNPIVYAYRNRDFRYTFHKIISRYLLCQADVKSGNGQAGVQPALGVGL
Sequence of human adenosine receptor sub-type A3 (P0DMS8 whole entry): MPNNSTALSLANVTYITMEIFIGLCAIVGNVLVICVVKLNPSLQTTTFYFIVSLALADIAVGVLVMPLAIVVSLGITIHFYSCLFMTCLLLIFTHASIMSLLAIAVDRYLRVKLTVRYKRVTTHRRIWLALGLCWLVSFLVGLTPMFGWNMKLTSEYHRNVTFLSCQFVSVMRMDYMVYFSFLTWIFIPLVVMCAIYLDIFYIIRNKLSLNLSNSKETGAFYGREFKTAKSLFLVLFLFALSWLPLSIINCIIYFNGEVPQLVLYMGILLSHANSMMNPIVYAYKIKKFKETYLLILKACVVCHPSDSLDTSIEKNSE
Sequence of human A2a receptors (HEK 293 transfected) (P29274 whole entry): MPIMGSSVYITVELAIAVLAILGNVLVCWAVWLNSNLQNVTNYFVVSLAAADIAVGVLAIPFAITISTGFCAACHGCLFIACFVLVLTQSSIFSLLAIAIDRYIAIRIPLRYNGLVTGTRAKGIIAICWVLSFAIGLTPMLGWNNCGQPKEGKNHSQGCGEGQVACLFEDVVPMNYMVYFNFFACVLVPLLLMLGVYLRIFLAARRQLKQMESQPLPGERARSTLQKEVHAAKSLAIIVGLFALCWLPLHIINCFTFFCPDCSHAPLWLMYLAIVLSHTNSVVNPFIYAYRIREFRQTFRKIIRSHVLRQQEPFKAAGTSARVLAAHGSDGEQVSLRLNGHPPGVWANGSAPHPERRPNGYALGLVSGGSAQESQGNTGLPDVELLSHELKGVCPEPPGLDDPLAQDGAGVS
Sequence of human adenosine receptor sub-type A2a (wild type) (P29274 whole entry): as above

Row | Compound | IC50 [1] [nM] | EC50 [2] [nM] | also measured
1 | COc1cccc(Cn2cc3c(N)nc(-c4cnccn4)nc3n2)c1 [Example 2, 2-[(3-methoxyphenyl)methyl]-6-(pyrazin-2-yl)-2H-pyrazolo[3,4-d]pyrimidin-4-amine] | 6.7 | 1530 | –
2 | Nc1nc(-c2cnccn2)nc2nn(Cc3cccc(O)c3)cc12 [Example 3, 3-{[4-amino-6-(pyrazin-2-yl)-2H-pyrazolo[3,4-d]pyrimidin-2-yl]methyl}phenol] | 41 | – | –
3 | COc1cccc(Cn2cc3c(N)nc(-c4ncco4)nc3n2)c1 [Example 4, 2-[(3-methoxyphenyl)methyl]-6-(1,3-oxazol-2-yl)-2H-pyrazolo[3,4-d]pyrimidin-4-amine] | 4.9 | 400 | –
4 | COc1cccc(Cn2cc3c(N)nc(-c4nc(C)cs4)nc3n2)c1 [Example 5, 2-[(3-methoxyphenyl)methyl]-6-(4-methyl-1,3-thiazol-2-yl)-2H-pyrazolo[3,4-d]pyrimidin-4-amine] | 47 | – | –
5 | COc1cccc(Cn2cc3c(N)nc(-c4cc(C)no4)nc3n2)c1 [Example 6, 2-[(3-methoxyphenyl)methyl]-6-(3-methyl-1,2-oxazol-5-yl)-2H-pyrazolo[3,4-d]pyrimidin-4-amine] | 162 | – | –
6 | COc1cccc(Cn2cc3c(N)nc(-c4snnc4C)nc3n2)c1 [Example 7, 2-[(3-methoxyphenyl)methyl]-6-(4-methyl-1,2,3-thiadiazol-5-yl)-2H-pyrazolo[3,4-d]pyrimidin-4-amine] | 24 | – | –
7 | COc1cccc(Cn2cc3c(N)nc(-c4cscn4)nc3n2)c1 [Example 9, 2-[(3-methoxyphenyl)methyl]-6-(1,3-thiazol-4-yl)-2H-pyrazolo[3,4-d]pyrimidin-4-amine] | 41 | 875 | –
8 | COc1cccc(Cn2cc3c(N)nc(-c4ccsn4)nc3n2)c1 [Example 10, 2-[(3-methoxyphenyl)methyl]-6-(1,2-thiazol-3-yl)-2H-pyrazolo[3,4-d]pyrimidin-4-amine] | 5.1 | 235 | IC50 [3]: 690 nM; Relative selectivity for A2a v. A2b [3]: 140; IC50 [4]: 680 nM; Relative selectivity for A2a v. A1 [4]: 130; IC50 [5]: 60000 nM; Relative selectivity for A2a v. A3 [5]: 12000
9 | Cc1ccc(Cn2cc3c(N)nc(-c4cnccn4)nc3n2)cc1 [Example 12, 2-[(4-methylphenyl)methyl]-6-(pyrazin-2-yl)-2H-pyrazolo[3,4-d]pyrimidin-4-amine] | 7.9 | 199 | IC50 [3]: 9000 nM; Relative selectivity for A2a v. A2b [3]: 1100; IC50 [4]: 7300 nM; Relative selectivity for A2a v. A1 [4]: 920; IC50 [5]: 38800 nM; Relative selectivity for A2a v. A3 [5]: 4900
10 | Cc1ccc(Cn2cc3c(N)nc(-c4ccsn4)nc3n2)cc1 [Example 13, 2-[(4-methylphenyl)methyl]-6-(1,2-thiazol-3-yl)-2H-pyrazolo[3,4-d]pyrimidin-4-amine] | 15 | 128 | –
11 | Cc1ccc(Cn2cc3c(N)nc(-c4nccs4)nc3n2)cc1 [Example 14, 2-[(4-methylphenyl)methyl]-6-(1,3-thiazol-2-yl)-2H-pyrazolo[3,4-d]pyrimidin-4-amine] | 14 | 54 | –
12 | COc1ccc(Cn2cc3c(N)nc(-c4cnccn4)nc3n2)cc1 [Example 15, 2-[(4-methoxyphenyl)methyl]-6-(pyrazin-2-yl)-2H-pyrazolo[3,4-d]pyrimidin-4-amine] | 253 | – | –
13 | Nc1nc(-c2ccsn2)nc2nn(Cc3cccc(OC(F)(F)F)c3)cc12 [Example 16, 6-(1,2-thiazol-3-yl)-2-{[3-(trifluoromethoxy)phenyl]methyl}-2H-pyrazolo[3,4-d]pyrimidin-4-amine] | 8.3 | 9 | –
14 | Nc1nc(-c2ccsn2)nc2nn(Cc3ccc(C(F)(F)F)cc3)cc12 [Example 17, 6-(1,2-thiazol-3-yl)-2-{[4-(trifluoromethyl)phenyl]methyl}-2H-pyrazolo[3,4-d]pyrimidin-4-amine] | 54 | 226 | –
15 | COc1cc(Cn2cc3c(N)nc(-c4ccsn4)nc3n2)ccc1C [Example 18, 2-[(3-methoxy-4-methylphenyl)methyl]-6-(1,2-thiazol-3-yl)-2H-pyrazolo[3,4-d]pyrimidin-4-amine] | 18 | 218 | –
16 | Nc1nc(-c2ccsn2)nc2nn(Cc3cc(Cl)ccc3Cl)cc12 [Example 20, 2-[(2,5-dichlorophenyl)methyl]-6-(1,2-thiazol-3-yl)-2H-pyrazolo[3,4-d]pyrimidin-4-amine] | 13 | 145 | –

Row | Compound | IC50 [1] [nM] | EC50 [2] [nM] | also measured
17 | Cc1ccc(Cn2cc3c(N)nc(-c4ccsn4)nc3n2)cc1C [Example 21, 2-[(3,4-dimethylphenyl)methyl]-6-(1,2-thiazol-3-yl)-2H-pyrazolo[3,4-d]pyrimidin-4-amine] | 5 | 4 | –
18 | Nc1nc(-c2ccsn2)nc2nn(Cc3ccccn3)cc12 [Example 22, 2-[(pyridin-2-yl)methyl]-6-(1,2-thiazol-3-yl)-2H-pyrazolo[3,4-d]pyrimidin-4-amine] | 27 | – | –
19 | Cc1ccc(Cn2cc3c(N)nc(-c4ccsn4)nc3n2)cn1 [Example 23, 2-[(6-methylpyridin-3-yl)methyl]-6-(1,2-thiazol-3-yl)-2H-pyrazolo[3,4-d]pyrimidin-4-amine] | 29 | – | –
20 | COc1cc(C)ccc1Cn1cc2c(N)nc(-c3ccsn3)nc2n1 [Example 25, 2-[(2-methoxy-4-methylphenyl)methyl]-6-(1,2-thiazol-3-yl)-2H-pyrazolo[3,4-d]pyrimidin-4-amine] | 18 | 407 | –
21 | Cc1cccc(Cn2cc3c(N)nc(-c4ncco4)nc3n2)c1 [Example 26, 2-[(3-methylphenyl)methyl]-6-(1,3-oxazol-2-yl)-2H-pyrazolo[3,4-d]pyrimidin-4-amine] | 2.8 | 123 | –
22 | Nc1nc(-c2cnccn2)nc2nn(Cc3cccc(C(F)(F)F)c3)cc12 [Example 28, 6-(pyrazin-2-yl)-2-{[3-(trifluoromethyl)phenyl]methyl}-2H-pyrazolo[3,4-d]pyrimidin-4-amine] | 3.2 | 13 | –
23 | Nc1nc(-c2ccsn2)nc2nn(Cc3cccc(F)c3)cc12 [Example 29, 2-[(3-fluorophenyl)methyl]-6-(1,2-thiazol-3-yl)-2H-pyrazolo[3,4-d]pyrimidin-4-amine] | 15 | 118 | –
24 | Nc1nc(-c2cnccn2)nc2nn(Cc3cccc(F)c3)cc12 [Example 30, 2-[(3-fluorophenyl)methyl]-6-(pyrazin-2-yl)-2H-pyrazolo[3,4-d]pyrimidin-4-amine] | 8 | 232 | –
25 | Cc1ccccc1Cn1cc2c(N)nc(-c3cnccn3)nc2n1 [Example 31, 2-[(2-methylphenyl)methyl]-6-(pyrazin-2-yl)-2H-pyrazolo[3,4-d]pyrimidin-4-amine] | 5.7 | 56 | –
26 | Cc1ccccc1Cn1cc2c(N)nc(-c3ccsn3)nc2n1 [Example 32, 2-[(2-methylphenyl)methyl]-6-(1,2-thiazol-3-yl)-2H-pyrazolo[3,4-d]pyrimidin-4-amine] | 10 | 14 | –
27 | Nc1nc(-c2nccs2)nc2nn(Cc3nccs3)cc12 [Example 33, 6-(1,3-thiazol-2-yl)-2-[(1,3-thiazol-2-yl)methyl]-2H-pyrazolo[3,4-d]pyrimidin-4-amine] | 27 | 2160 | –
28 | Nc1nc(-c2ccsn2)nc2nn(Cc3nccs3)cc12 [Example 34, 2-[(1,3-thiazol-2-yl)methyl]-6-(1,2-thiazol-3-yl)-2H-pyrazolo[3,4-d]pyrimidin-4-amine] | 67 | – | –
29 | Nc1nc(-c2cnccn2)nc2nn(Cc3cccc(Cl)c3)cc12 [Example 36, 2-[(3-chlorophenyl)methyl]-6-(pyrazin-2-yl)-2H-pyrazolo[3,4-d]pyrimidin-4-amine] | 1.5 | 30 | –
30 | COc1ccccc1Cn1cc2c(N)nc(-c3ncco3)nc2n1 [Example 39, 2-[(2-methoxyphenyl)methyl]-6-(1,3-oxazol-2-yl)-2H-pyrazolo[3,4-d]pyrimidin-4-amine] | 4.3 | 213 | –
31 | Nc1nc(-c2ccsn2)nc2nn(Cc3cccc(O)c3)cc12 [Example 42, 3-{[4-amino-6-(1,2-thiazol-3-yl)-2H-pyrazolo[3,4-d]pyrimidin-2-yl]methyl}phenol] | 61 | – | –
32 | Nc1nc(-c2ccsn2)nc2nn(Cc3cccc(CO)c3)cc12 [Example 46, [3-[(4-amino-6-(1,2-thiazol-3-yl)-pyrazolo[3,4-d]pyrimidin-2-yl)methyl]phenyl]methanol] | 37 | – | IC50 [3]: > 100000 nM; Relative selectivity for A2a v. A2b [3]: >2700; IC50 [4]: > 100000 nM; Relative selectivity for A2a v. A1 [4]: >2700; IC50 [5]: > 100000 nM; Relative selectivity for A2a v. A3 [5]: >2700
